From patent US20120020930A1, “METHODS FOR THE PREPARATION OF ADIPOSE DERIVED STEM CELLS AND UTILIZING SAID CELLS IN THE TREATMENT OF DISEASES” (CELLERIX, S.A., priority 2008, published 2012)
“Also recorded” adds a separate entry of the source.

How the values were obtained:
ASC [1] = test: Transwell migration of ASC towards SDF-1 in the presence of Diprotin A; assay type: cell-based, human; settings: Diprotin A 0, 1, 5, 10 mM on upper surface; SDF-1 50 μM in well; 24 h; crystal violet stained cells counted; FIG. 1
Description: ASC were obtained from lipoaspirates obtained from human adipose tissue from healthy adult donors. Lipoaspirates were washed twice with PBS, and digested at 37° C. for 30 minutes with 0.075% collagenase (Type I, Invitrogen, Carlsbad, Calif.) in PBS. The digested sample was washed with 10% of fetal bovine serum (FBS), treated with 160 mM CINH4, suspended in culture medium (DMEM containing 10% FBS) and filtered through a 40-μm nylon mesh. Cells were seeded (2-3×10^4 cells/cm^2) onto tissue culture flasks and expanded at 37° C. and 5% CO2, changing the culture medium every 7 days. Cells were passed to a new culture flask (1,000 cells/cm^2) when cultures reached 90% of confluence. Cells were phenotypically characterized by their capacity to differentiate into chondro-, osteo-, and adipo-genic lineages. A pool of 6 ASC samples from different donors (culture passage 4-6) was used.
ASC (10^4 cells) were seeded onto the upper surface of a Transwell permeable support insert with a pore size of 8 μm. The permeable supports were inserted into a 24 well plate. […]
Stained cells (i.e. those having migrated to the underside of the permeable support) were then counted. Total number of counted cells per experimental condition is shown (two inserts per condition were counted).

ASC [2] = test: IDO expression in ASC upon stimulation with pro-inflammatory mediators (RT-PCR and Western Blot); assay type: cell-based; settings: TNF-α at 50 ng/mi

Row | Substance | number of migrating cells (ASC migration to the underside of the permeable support) (ASC [1]) | IDO expression (ASC [2])
1 | Ile-Pro-Ile [Diprotin A] | increased migration of cells; also recorded: increased in proportion to the amount of Diprotin A | 
2 | TNF-α |  | did not induce IDO expression
